Assay results reported in patent US9289468B2, “Fusion protein comprising circularly permuted form of trail/Apo2L, coding gene and use thereof” (Beijing Sunbio Biotech Co. Ltd., priority 2011, dated 2016).

B1: CPT: recombinant human circularly permuted TRAIL: amino acids 135-281, a linker, amino acids 122-135; SEQ ID NO: 1 (protein)
chain: TLSSPNSKNEKALGRKINSWESSRSGHSFLSNLHLRNGELVIHEKGFYYIYSQTYFRFQEEIKENTKNDKQMVQYIYKYTSYPDPILLMKSARNSCWSKDAEYGLYSIYQGGIFELKENDRIFVSVTNEHLIDMDHEASFFGAFLVGGGGGGVAAHITGTRGRSNT
modifications: CPT polypeptide sequence

Test system: human multiple myeloma cell line U266
Test: Combination with melphalan, cell survival (ATPlite)
Type: cell-based
Description: FIG. 9. […] U266 cells are insensitive to CPT. At the concentration of 1 μg/ml, NCPT-1.M1 alone has a mild killing effect on U266 (<20%), but with the presence of melphalan (12.5˜50 μg/ml), both of them can cause enhanced killing effect. The cell viability was assayed with ATPlite luminescent system (PerkinElmer), the data as shown in this figure are all represented as the mean±standard deviation, n=4, #P<0.05, ##P<0.01 vs. melphalan group; *P<0.05 vs. NCPT-1.M1 group.

Molecule	cell survival rate, melphalan alone (melphalan 12.5˜50 μg/ml, 48 h, U266B1)	sensitivity of the cell line (U266 / U266B1)
N[C@@H](Cc1ccc(N(CCCl)CCCl)cc1)C(=O)O [melphalan, reference compound]	11.9˜100.9%	
B1		insensitive
